The text below walks through data of article PMC7901646, “Pyrrolo[2′,3′:3,4]cyclohepta[1,2-d][1,2]oxazoles, a New Class of Antimitotic Agents Active against Multiple Malignant Cell Types” (Journal of Medicinal Chemistry, 2020).

Common to all, as to test: MTT cell proliferation, lymphoma
What all share (format): cell-based

The subject of one experiment is HBL1 (ABC DLBCL). The conditions noted are these: Homo sapiens, 72 h; for activity at 1 µM: of untreated cells, read-out: Proliferating cells (%); for IC50: MTT. As to the method: (§1) All compounds were further tested at the concentration of 1 μM on four cell lines derived from distinct lymphoma histotypes, plus two with secondary resistance to the PI3Kδ inhibitor idelalisib[51] or to the BTK inhibitor ibrutinib.[52] […] For comparison, the same experiments were conducted using compound 3, but the response to it was minimal, and thus it was not considered further.
(§2) Established human cell lines derived from germinal center B-cell (GCB) (SU-DHL-10), activated B-cell (ABC) (HBL1) diffuse large B-cell lymphoma (DLBCL), mantle cell lymphoma (MCL) (MINO), splenic marginal zone lymphoma (SMZL) (parental VL51, VL51 idelalisib resistant clone, VL51 ibrutinib resistant clone) were cultured in culture RPMI-1640 media supplemented with fetal bovine serum (10%), penicillin–streptomycin–neomycin (∼5,000 units of penicillin, 5 mg of streptomycinm and 10 mg of neomycin/mL, Sigma), and L-glutamine (1%). Vincristine sulfate was purchased from Sigma-Aldrich. Cell line identities were confirmed by CellCheck test (IDEXX, BioResearch, Ludwigsburg, Germany). All compounds were dissolved in dimethyl sulfoxide to obtain a stock concentration of 10 mM.
(§3) The antiproliferative activity of all compounds was assessed by using the 3-(4.5-dimethylthiazolyl-2)-2,5-diphenyltetrazolium bromide (MTT) test. Cells were seeded in 96-well plates (nontissue culture treated) at a density of 1 × 10^5 cells/mL and treated with a single concentration of 1 μM for 72 h. […] In this case, cells were treated in triplicate with serially diluted compounds in the appropriate tissue culture medium at a range of 40–10 000 nM. Cells were incubated for 72 h at 37 °C, 5% CO2. Wells containing medium only were included on each plate and served as blanks for absorbance readings. MTT (Sigma, Buchs, Switzerland) was prepared as a 5 mg/mL stock solution in phosphate buffered saline (PBS) and filter-sterilized. MTT solution (22 μL) was added to each well, and tissue culture plates were incubated at 37 °C for 4 h. Cells were then lysed with 25% sodium dodecyl sulfate lysis buffer, and absorbance was read at 570 nm using a Beckman Coulter-AD340 plate reader.

For the next experiment, the system named is MINO (MCL). Conditions: Homo sapiens, 72 h; for activity at 1 µM: of untreated cells, read-out: Proliferating cells (%); for IC50: MTT. As to the method: as §1, §2, §3
The subject of the next experiment is SU-DHL-10 (GCB DLBCL). Conditions: Homo sapiens, SU-DHL10, 72 h; for activity at 1 µM: of untreated cells, read-out: Proliferating cells (%); for IC50: MTT. On the procedure: as §1, §2, §3
For another experiment, the system named is VL51 (MZL). Conditions: Homo sapiens, 72 h; for activity at 1 µM: of untreated cells, read-out: Proliferating cells (%); for IC50: MTT. On the procedure:
as §1, §2, §3

Another experiment deals with VL51 ibrutinib-resistant. Conditions: Homo sapiens, 72 h, of untreated cells, read-out: Proliferating cells (%). As to the method: as §1, §2, §3
Experiment [1] has as its system VL51 idelalisib-resistant. Conditions: Homo sapiens, 72 h, of untreated cells, read-out: Proliferating cells (%). On the procedure:
as §1, §2, §3

Broadly, the IC50 is the midpoint of a concentration-inhibition curve. Higher therefore signals lower potency.

Some results are limits rather than exact numbers.

For `O=S(=O)(c1ccccc1)n1ccc2c1-c1oncc1CCC2` [Compound 51, 9-(Phenylsulfonyl)-4,5,6,9-tetrahydropyrrolo[2′,3′:3,4]cyclohepta[1,2-d][1,2]oxazole], the activity at 1 µM amounted to 118% with HBL1 (ABC DLBCL); 104% in the experiment on MINO (MCL); 110% with SU-DHL-10 (GCB DLBCL); 88.1% in the experiment on VL51 (MZL); 121% in the experiment with VL51 ibrutinib-resistant; 118% in experiment [1].

Regarding `Cn1ccc2c1-c1oncc1CCC2` [Compound 52, 9-Methyl-4,5,6,9-tetrahydropyrrolo[2′,3′:3,4]cyclohepta[1,2-d][1,2]oxazole], the activity at 1 µM in the experiment with HBL1 (ABC DLBCL) worked out at 101%; in the experiment on MINO (MCL), 104%; in the experiment on SU-DHL-10 (GCB DLBCL), 70.2%; in the experiment on VL51 (MZL), 87.4%; in the experiment with VL51 ibrutinib-resistant it was 100%; in experiment [1], 107%.

Take `c1ccc(Cn2ccc3c2-c2oncc2CCC3)cc1` [Compound 53, 9-Benzyl-4,5,6,9-tetrahydropyrrolo[2′,3′:3,4]cyclohepta[1,2-d][1,2]oxazole]: the activity at 1 µM with HBL1 (ABC DLBCL) turned out to be 109%; in the experiment on MINO (MCL) it was 109%; in the experiment on SU-DHL-10 (GCB DLBCL), 70.2%; in the experiment on VL51 (MZL) it was 103%; with VL51 ibrutinib-resistant, 125%; in experiment [1], 128%.

`COc1ccccc1Cn1ccc2c1-c1oncc1CCC2` [Compound 54, 9-(2-Methoxybenzyl)-4,5,6,9-tetrahydropyrrolo[2′,3′:3,4]cyclohepta[1,2-d][1,2]oxazole]: the activity at 1 µM in the experiment with HBL1 (ABC DLBCL) was 122%; with MINO (MCL) it was 112%; in the experiment on SU-DHL-10 (GCB DLBCL), 141%; with VL51 (MZL), 120%; in the experiment on VL51 ibrutinib-resistant it was 112%; in experiment [1], 136%.

`COc1cccc(Cn2ccc3c2-c2oncc2CCC3)c1` [Compound 55, 9-(3-Methoxybenzyl)-4,5,6,9-tetrahydropyrrolo[2′,3′:3,4]cyclohepta[1,2-d][1,2]oxazole]: the activity at 1 µM turned out to be 127% in the experiment with HBL1 (ABC DLBCL); 115% in the experiment with MINO (MCL); 80.3% in the experiment on SU-DHL-10 (GCB DLBCL); 112% with VL51 (MZL); 125% in the experiment with VL51 ibrutinib-resistant; 133% in experiment [1].

As for `COc1cc(Cn2ccc3c2-c2oncc2CCC3)cc(OC)c1OC` [Compound 59, 9-(3,4,5-Trimethoxybenzyl)-4,5,6,9-tetrahydropyrrolo[2′,3′:3,4]cyclohepta[1,2-d][1,2]oxazole], the activity at 1 µM in the experiment on HBL1 (ABC DLBCL) amounted to 114%; in the experiment with MINO (MCL), 99%; in the experiment on SU-DHL-10 (GCB DLBCL), 94.6%; in the experiment with VL51 (MZL), 97.6%; in the experiment with VL51 ibrutinib-resistant, 92.1%; in experiment [1] it was 112%.

For the molecule `CCOC(=O)c1cc2c(n1C)-c1oncc1CCC2` [Compound 60, Ethyl 9-Methyl-4,5,6,9-tetrahydropyrrolo[2′,3′:3,4]cyclohepta[1,2-d][1,2]oxazole-8-carboxylate], the activity at 1 µM in the experiment with HBL1 (ABC DLBCL) was 146%; in the experiment on MINO (MCL), 112%; in the experiment on SU-DHL-10 (GCB DLBCL), 61.7%; with VL51 (MZL), 108%; with VL51 ibrutinib-resistant, 125%; in experiment [1], 115%.

For the molecule `CCOC(=O)c1cc2c(n1Cc1ccccc1)-c1oncc1CCC2` [Compound 61, Ethyl 9-Benzyl-4,5,6,9-tetrahydropyrrolo[2′,3′:3,4]cyclohepta[1,2-d][1,2]oxazole-8-carboxylate], the activity at 1 µM with HBL1 (ABC DLBCL) was 124%; in the experiment on MINO (MCL) it was 106%; in the experiment on SU-DHL-10 (GCB DLBCL), 65.2%; in the experiment on VL51 (MZL), 93.3%; in the experiment with VL51 ibrutinib-resistant it was 118%; in experiment [1], 117%.

With `CCOC(=O)c1cc2c(n1Cc1ccc(OC)cc1)-c1oncc1CCC2` [Compound 64, Ethyl 9-(4-Methoxybenzyl)-4,5,6,9-tetrahydropyrrolo[2′,3′:3,4]cyclohepta[1,2-d][1,2]oxazole-8-carboxylate], the activity at 1 µM in the experiment on HBL1 (ABC DLBCL) was 125%; in the experiment on MINO (MCL), 112%; in the experiment on SU-DHL-10 (GCB DLBCL) it was 66.3%; with VL51 (MZL) it was 87.4%; in the experiment on VL51 ibrutinib-resistant it was 102%; in experiment [1], 116%.

`CCOC(=O)c1cc2c(n1Cc1cc(OC)ccc1OC)-c1oncc1CCC2` [Compound 65, Ethyl 9-(2,5-Dimethoxybenzyl)-4,5,6,9-tetrahydropyrrolo[2′,3′:3,4]cyclohepta[1,2-d][1,2]oxazole-8-carboxylate]: the activity at 1 µM with HBL1 (ABC DLBCL) is 111%; with MINO (MCL), 107%; with SU-DHL-10 (GCB DLBCL), 71.6%; in the experiment with VL51 (MZL) it was 86.2%; in the experiment with VL51 ibrutinib-resistant, 94%; in experiment [1], 96.4%.

As to `COC(=O)c1cc2c(n1Cc1ccccc1)-c1oncc1CCC2` [Compound 68, Methyl 9-Benzyl-4,5,6,9-tetrahydropyrrolo[2′,3′:3,4]cyclohepta[1,2-d][1,2]oxazole-8-carboxylate], the activity at 1 µM with HBL1 (ABC DLBCL) came to 109%; with MINO (MCL) it was 98.8%; with SU-DHL-10 (GCB DLBCL), 78.9%; in the experiment on VL51 (MZL) it was 94.5%; with VL51 ibrutinib-resistant it was 120%; in experiment [1] it was 123%.

Take `CCOC(=O)c1c(Cl)c2c(n1C)-c1oncc1CCC2` [Compound 69, Ethyl 7-Chloro-9-methyl-4,5,6,9-tetrahydropyrrolo[2′,3′:3,4]cyclohepta[1,2-d][1,2]oxazole-8-carboxylate]: the activity at 1 µM is 103% in the experiment with HBL1 (ABC DLBCL); 116% with MINO (MCL); 78.5% with SU-DHL-10 (GCB DLBCL); 93.8% in the experiment with VL51 (MZL); 110% in the experiment on VL51 ibrutinib-resistant; 121% in experiment [1].

`CCOC(=O)c1c(Cl)c2c(n1Cc1ccccc1OC)-c1oncc1CCC2` [Compound 71, Ethyl 7-Chloro-9-(2-methoxybenzyl)-4,5,6,9-tetrahydropyrrolo[2′,3′:3,4]cyclohepta[1,2-d][1,2]oxazole-8-carboxylate]: the activity at 1 µM in the experiment with HBL1 (ABC DLBCL) is 97%; in the experiment on MINO (MCL), 55.9%; in the experiment on SU-DHL-10 (GCB DLBCL), 58.2%; in the experiment with VL51 (MZL) it was 58.8%; in the experiment with VL51 ibrutinib-resistant, 56.2%; in experiment [1], 52.2%. Also, the half-inhibitory concentration (IC50) is > 5000 nM in the experiment with HBL1 (ABC DLBCL), 3400 nM in the experiment on MINO (MCL), 2200 nM in the experiment on SU-DHL-10 (GCB DLBCL) and 2400 nM in the experiment with VL51 (MZL).

Turning to `CCOC(=O)c1c(Cl)c2c(n1Cc1cccc(OC)c1)-c1oncc1CCC2` [Compound 72, Ethyl 7-Chloro-9-(3-methoxybenzyl)-4,5,6,9-tetrahydropyrrolo[2′,3′:3,4]cyclohepta[1,2-d][1,2]oxazole-8-carboxylate], the activity at 1 µM in the experiment on HBL1 (ABC DLBCL) is 105%; in the experiment with MINO (MCL), 110%; in the experiment on SU-DHL-10 (GCB DLBCL) it was 76.9%; in the experiment on VL51 (MZL), 107%; in the experiment on VL51 ibrutinib-resistant, 103%; in experiment [1], 128%.

Turning to `CCOC(=O)c1c(Cl)c2c(n1Cc1ccc(OC)cc1)-c1oncc1CCC2` [Compound 73, Ethyl 7-Chloro-9-(4-methoxybenzyl)-4,5,6,9-tetrahydropyrrolo[2′,3′:3,4]cyclohepta[1,2-d][1,2]oxazole-8-carboxylate], the activity at 1 µM stood at 107% with HBL1 (ABC DLBCL); 99.5% in the experiment with MINO (MCL); 87.4% in the experiment with SU-DHL-10 (GCB DLBCL); 113% with VL51 (MZL); 102% with VL51 ibrutinib-resistant; 126% in experiment [1].

As for `CCOC(=O)c1c(Cl)c2c(n1Cc1cc(OC)ccc1OC)-c1oncc1CCC2` [Compound 74, Ethyl 7-Chloro-9-(2,5-dimethoxybenzyl)-4,5,6,9-tetrahydropyrrolo[2′,3′:3,4]cyclohepta[1,2-d][1,2]oxazole-8-carboxylate], the activity at 1 µM with HBL1 (ABC DLBCL) amounted to 29%; in the experiment with MINO (MCL), 9.8%; in the experiment on SU-DHL-10 (GCB DLBCL), 13.3%; in the experiment with VL51 (MZL), 40.4%; with VL51 ibrutinib-resistant, 44.4%; in experiment [1], 37.7%. Moreover, the IC50 came out at 1000 nM with HBL1 (ABC DLBCL), 800 nM in the experiment with MINO (MCL), 700 nM in the experiment with SU-DHL-10 (GCB DLBCL) and 500 nM in the experiment on VL51 (MZL).
